Data taken from patent US10294202B2, “Pyrrolidinones as herbicides” (FMC Corporation, priority 2013, dated 2019).

Legend:
[1] = tested on: waterhemp; experiment: Test C pre-/postemergence herbicide test; format: in vivo, Amaranthus rudis; conditions: Postemergence
Method in brief: (§1)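 Herbicidal effect was judged by eye 13 to 15 days after treatment in the greenhouse, using a 0–100 scale against controls. Chemicals in a non-phytotoxic solvent with surfactant were sprayed onto planted loam/sand soil or onto plants 2 to 18 cm tall in a peat-based growing medium.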

[2] = tested on: morningglory; experiment: Test C pre-/postemergence herbicide test; format: in vivo, Ipomoea coccinea
Method in brief: as §1

[3] = tested on: barnyardgrass; experiment: Test C pre-/postemergence herbicide test; format: in vivo, Echinochloa crus-galli; conditions: Postemergence
Method in brief: as §1

[4] = tested on: pigweed; experiment: Test A pre-/postemergence herbicide test; format: in vivo, Amaranthus retroflexus; conditions: for Pigweed plant response rating: Preemergence, visual rating on 0 to 100 scale (0 no effect, 100 complete control)
Method in brief: (§2)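 Both application timings used compounds in a non-phytotoxic solvent plus surfactant. Pre-emergence: soil sprayed directly after seeding into loam/sand. Post-emergence: foliage of 2–10 cm seedlings (1–2 leaves) sprayed. Injury rated ~10 days later, 0–100.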

[5] = tested on: nutsedge, yellow; experiment: Test C pre-/postemergence herbicide test; format: in vivo, Cyperus esculentus
Method in brief: as §1

[6] = tested on: barnyardgrass; experiment: Test A pre-/postemergence herbicide test; format: in vivo, Echinochloa crus-galli; conditions: for Barnyardgrass plant response rating: Preemergence, visual rating on 0 to 100 scale (0 no effect, 100 complete control)
Method in brief: as §2

[7] = tested on: soybean; experiment: Test C pre-/postemergence herbicide test; format: in vivo, Glycine max
Method in brief: as §1

[8] = tested on: ryegrass, Italian; experiment: Test C pre-/postemergence herbicide test; format: in vivo, Lolium multiflorum
Method in brief: as §1

[9] = tested on: oat, wild; experiment: Test C pre-/postemergence herbicide test; format: in vivo, Avena fatua
Method in brief: as §1

[10] = tested on: ducksalad; experiment: Test B flooded paddy test; format: in vivo, Heteranthera limosa; conditions: Flood, scale of 0 to 100 where 0 is no effect and 100 is complete control
Method in brief: (§3)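 2-leaf plants; flood 3 cm over soil; compound into paddy water; depth held. Greenhouse 13–15 d. Visual rating vs controls, 0 (no effect) to 100 (complete control); dash = not tested.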

[11] = tested on: rice; experiment: Test B flooded paddy test; format: in vivo, Oryza sativa; conditions: Flood, scale of 0 to 100 where 0 is no effect and 100 is complete control
Method in brief: as §3

[12] = tested on: barnyardgrass; experiment: Test B flooded paddy test; format: in vivo, Echinochloa crus-galli; conditions: Flood, scale of 0 to 100 where 0 is no effect and 100 is complete control
Method in brief: as §3

[13] = 31 g ai/ha, scale 0 (no effect) to 100 (complete control)
[14] = 62 g ai/ha, scale 0 to 100 (0 no effect, 100 complete control)
[15] = 125 g ai/ha, scale 0 to 100 (0 no effect, 100 complete control)
[16] = 250 g ai/ha, scale 0 to 100 (0 no effect, 100 complete control)
[17] = Postemergence, 31 g ai/ha, scale 0 (no effect) to 100 (complete control)
[18] = Postemergence, 62 g ai/ha, scale 0 to 100 (0 no effect, 100 complete control)
[19] = Postemergence, 125 g ai/ha, scale 0 to 100 (0 no effect, 100 complete control)
[20] = Postemergence, 250 g ai/ha, scale 0 to 100 (0 no effect, 100 complete control)
[21] = Postemergence, 1000 g ai/ha, 0 to 100 scale (0 no effect, 100 complete control)
[22] = Preemergence, 62 g ai/ha, scale 0 to 100
[23] = Preemergence, 125 g ai/ha, scale 0 to 100 (0 no effect, 100 complete control)
[24] = Postemergence, 125 g ai/ha, 0 to 100 scale, 0 no effect, 100 complete control
[25] = Postemergence, 500 g ai/ha, 0 to 100 scale (0 no effect, 100 complete control)
[26] = preemergence, 500 g ai/ha, 0 to 100 scale
[27] = preemergence, 500 g ai/ha, 0 to 100 scale (0 no effect, 100 complete control)
[28] = Preemergence, 31 g ai/ha, scale 0 to 100, 0 is no effect and 100 is complete control

Cc1c(F)cccc1NC(=O)C1C(=O)NCC1c1ccc(F)c(F)c1 (racemic) [Compound 106]
5: Plant response rating, Morningglory [2, 18] | Plant response rating, Morningglory [2, 20] | Plant response rating, Soybean [7, 19] | Plant response rating, Soybean [7, 20] | Plant response rating, Ryegrass, Italian [8, 20]
10: Plant response rating, Waterhemp [1, 15] | Plant response rating, Morningglory [2, 19]
30: Plant response rating, Barnyardgrass [3, 16]
20: Plant response rating, Waterhemp [1, 16]
0: Plant response rating, Waterhemp [1, 13] | Plant response rating, Waterhemp [1, 14] | Plant response rating, Morningglory [2, 17] | Plant response rating, Barnyardgrass [3, 13] | Plant response rating, Barnyardgrass [3, 14] | Plant response rating, Barnyardgrass [3, 15] | Plant response rating, Pigweed [4, 21] | Plant response rating, Pigweed ([4]; preemergence, 1000 g ai/ha, 0 to 100 scale) | Plant response rating, Nutsedge, Yellow [5, 17] | Plant response rating, Nutsedge, Yellow [5, 18] | Plant response rating, Nutsedge, Yellow [5, 19] | Plant response rating, Nutsedge, Yellow [5, 20] | Plant response rating, Soybean [7, 17] | Plant response rating, Soybean [7, 18] | Plant response rating, Ryegrass, Italian [8, 17] | Plant response rating, Ryegrass, Italian [8, 18] | Plant response rating, Ryegrass, Italian [8, 19] | Plant response rating, Oat, Wild [9, 17] | Plant response rating, Oat, Wild [9, 18] | Plant response rating, Oat, Wild [9, 19] | Plant response rating, Oat, Wild [9, 20]
90: Plant response rating, Barnyardgrass [6, 21] | Plant response rating, Barnyardgrass ([6]; preemergence, 1000 g ai/ha, 0 to 100 scale (0 no effect, 100 complete control)) | Plant response rating, Ducksalad ([10]; 1000 g ai/ha)
15: Plant response rating, Rice ([11]; 1000 g ai/ha)
60: Plant response rating, Barnyardgrass ([12]; 1000 g ai/ha)

O=C1NCC(c2ccc(Cl)c(F)c2)C1C(=O)Nc1cccc(F)c1F (centres unmarked) [Compound 52]
90: Plant response rating, Barnyardgrass [6, 27] | Plant response rating, Ducksalad ([10]; 250 g ai/ha)
15: Plant response rating, Soybean [7, 23]
40: Plant response rating, Pigweed [4, 25] | Plant response rating, Pigweed [4, 26]
80: Plant response rating, Barnyardgrass [6, 24] | Plant response rating, Barnyardgrass [6, 25] | Barnyardgrass plant response rating ([6]; 125 g ai/ha)
5: Plant response rating, Morningglory [2, 17] | Plant response rating, Soybean [7, 19] | Plant response rating, Soybean [7, 20]
0: Plant response rating, Morningglory [2, 22] | Plant response rating, Morningglory [2, 23] | Plant response rating, Pigweed [4, 24] | Pigweed plant response rating ([4]; 125 g ai/ha) | Plant response rating, Soybean [7, 17] | Plant response rating, Soybean [7, 18] | Plant response rating, Ryegrass, Italian [8, 17] | Plant response rating, Ryegrass, Italian [8, 18] | Plant response rating, Ryegrass, Italian [8, 19] | Plant response rating, Ryegrass, Italian [8, 20] | Plant response rating, Ryegrass, Italian [8, 22] | Plant response rating, Ryegrass, Italian [8, 23] | Plant response rating, Oat, Wild [9, 17] | Plant response rating, Oat, Wild [9, 18] | Plant response rating, Oat, Wild [9, 19] | Plant response rating, Oat, Wild [9, 20] | Plant response rating, Oat, Wild [9, 22] | Plant response rating, Oat, Wild [9, 23]
25: Plant response rating, Nutsedge, Yellow [5, 22] | Plant response rating, Nutsedge, Yellow [5, 23] | Plant response rating, Rice ([11]; 250 g ai/ha)
30: Plant response rating, Morningglory [2, 20]
10: Plant response rating, Morningglory [2, 18] | Plant response rating, Morningglory [2, 19] | Plant response rating, Nutsedge, Yellow [5, 17] | Plant response rating, Nutsedge, Yellow [5, 18] | Plant response rating, Nutsedge, Yellow [5, 19] | Plant response rating, Nutsedge, Yellow [5, 20] | Plant response rating, Soybean [7, 22]
55: Plant response rating, Barnyardgrass ([12]; 250 g ai/ha)

O=C1NCC(c2ccc(F)c(Cl)c2)C1C(=O)Nc1ccccc1F (centres unmarked) [Compound 60]
30: Plant response rating, Barnyardgrass ([12]; 250 g ai/ha)
5: Plant response rating, Morningglory [2, 17] | Plant response rating, Nutsedge, Yellow [5, 19] | Plant response rating, Soybean [7, 19] | Plant response rating, Oat, Wild [9, 23]
80: Plant response rating, Barnyardgrass [6, 24] | Barnyardgrass plant response rating ([6]; 125 g ai/ha)
0: Plant response rating, Pigweed [4, 24] | Plant response rating, Pigweed [4, 25] | Pigweed plant response rating ([4]; 125 g ai/ha) | Plant response rating, Pigweed [4, 26] | Plant response rating, Nutsedge, Yellow [5, 17] | Plant response rating, Nutsedge, Yellow [5, 18] | Plant response rating, Nutsedge, Yellow [5, 22] | Plant response rating, Soybean [7, 17] | Plant response rating, Soybean [7, 18] | Plant response rating, Ryegrass, Italian [8, 17] | Plant response rating, Ryegrass, Italian [8, 18] | Plant response rating, Ryegrass, Italian [8, 19] | Plant response rating, Ryegrass, Italian [8, 22] | Plant response rating, Ryegrass, Italian [8, 23] | Plant response rating, Oat, Wild [9, 17] | Plant response rating, Oat, Wild [9, 18] | Plant response rating, Oat, Wild [9, 19] | Plant response rating, Oat, Wild [9, 22] | Plant response rating, Rice ([11]; 250 g ai/ha)
25: Plant response rating, Soybean [7, 22] | Plant response rating, Soybean [7, 23]
90: Plant response rating, Barnyardgrass [6, 25] | Plant response rating, Barnyardgrass [6, 27] | Plant response rating, Ducksalad ([10]; 250 g ai/ha)
15: Plant response rating, Nutsedge, Yellow [5, 23]
10: Plant response rating, Morningglory [2, 18] | Plant response rating, Morningglory [2, 19] | Plant response rating, Morningglory [2, 22] | Plant response rating, Morningglory [2, 23]

O=C1NCC(c2cccc(OC(F)(F)F)c2)C1C(=O)Nc1ccccc1F (centres unmarked) [Compound 69]
25: Plant response rating, Morningglory [2, 23] | Plant response rating (scale of 0 to 100), Morningglory ([2]; Preemergence, 250 g ai/ha)
40: Plant response rating, Barnyardgrass ([12]; 250 g ai/ha)
0: Pigweed plant response rating ([4]; 125 g ai/ha) | Nutsedge, Yellow plant response rating [5, 28] | Plant response rating, Nutsedge, Yellow [5, 23] | Soybean plant response rating [7, 28] | Plant response rating, Soybean [7, 22] | Plant response rating, Soybean [7, 23] | Plant response rating (scale of 0 to 100), Soybean ([7]; Preemergence, 250 g ai/ha) | Ryegrass, Italian plant response rating [8, 28] | Plant response rating, Ryegrass, Italian [8, 22] | Plant response rating, Ryegrass, Italian [8, 23] | Plant response rating, Oat, Wild [9, 22]
5: Plant response rating, Oat, Wild [9, 23] | Plant response rating (scale of 0 to 100), Oat, Wild ([9]; Preemergence, 250 g ai/ha)
90: Plant response rating, Barnyardgrass [6, 27]
30: Plant response rating, Pigweed [4, 25] | Plant response rating, Rice ([11]; 250 g ai/ha)
20: Morningglory plant response rating [2, 28] | Plant response rating, Pigweed [4, 24] | Plant response rating, Pigweed [4, 26]
80: Plant response rating, Barnyardgrass [6, 25] | Barnyardgrass plant response rating ([6]; 125 g ai/ha)
70: Plant response rating, Barnyardgrass [6, 24]
10: Plant response rating (scale of 0 to 100), Nutsedge, Yellow ([5]; Preemergence, 250 g ai/ha) | Plant response rating (scale of 0 to 100), Ryegrass, Italian ([8]; Preemergence, 250 g ai/ha)
85: Plant response rating, Ducksalad ([10]; 250 g ai/ha)
